Experimental data reported in patent US20240300980A1, “HETEROCYCLIC COMPOUNDS AS KRAS INHIBITOR, AND PREPARATION THEREFOR AND USE THEREOF IN TREATMENT” (SHANGHAI KECHOW PHARMA, INC., priority 2021, published 2024).

Tested on: AGS cells (KRAS^G12D)
Assay: Detection of cell proliferation in vitro by MTT/MTS method (cell activity experiment)
Assay type: cell-based
Details: Homo sapiens, AGS, 72 h, AGS cells; MTT/MTS; 3 days of drug treatment; read-out: AGS IC50
In short: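 KRAS G12D AGS cells seeded at 1000 per well, compound added 24 h later, 0.5% final DMSO. Viability read after 3 days of treatment by MTT (solubilised in DMSO) or MTS, 4 h, absorbance 490 nm. IC50 from dose–response curves versus DMSO control.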

Molecule CCc1csc2cc(O)cc(-c3ncc4c(N5C[C@H]6CC[C@@H](C5)N6)nc(OC[C@@]56CCCN5C[C@H](F)C6)nc4c3F)c12 [Example 348, 4-(4-((1R,5S)-3,8-diazabicyclo[3.2.1]octan-3-yl)-8-fluoro-2-(((2R,7aS)-2-fluorotetrahydro-1H-pyrrolizin-7a(5H)-yl)methoxy)pyrido[4,3-d]pyrimidin-7-yl)-3-ethylbenzo[b]thiophen-6-ol] has an IC50 of 0.085 µM.
C#Cc1cccc2cc(O)cc(-c3ccc4c(N5C[C@H]6CC[C@@H](C5)N6)c(C#N)c(OC[C@@]56CCCN5C[C@H](F)C6)nc4c3F)c12 [Example 182, 4-((1R,5S)-3,8-diazabicyclo[3.2.1]octan-3-yl)-7-(8-ethynyl-3-hydroxynaphthalen-1-yl)-8-fluoro-2-(((2R,7aS)-2-fluorotetrahydro-1H-pyrrolizin-7a(5H)-yl)methoxy)quinoline-3-carbonitrile] gave an IC50 of 0.533 µM.
CCC1c2c(-c3ncc4c(N5C[C@H]6CC[C@@H](C5)N6)nc(OC[C@@]56CCCN5C[C@H](F)C6)nc4c3F)cc(O)cc2C2CC21 (stereo partly drawn) [Example 355, 5-(4-((1R,5S)-3,8-diazabicyclo[3.2.1]octan-3-yl)-8-fluoro-2-(((2R,7aS)-2-fluorotetrahydro-1H-pyrrolizin-7a(5H)-yl)methoxy)pyrido[4,3-d]pyrimidin-7-yl)-6-ethyl-1,1a,6,6a-tetrahydrocyclopropa[a]inden-3-ol] showed an IC50 of 0.02 µM.
C#Cc1c(F)ccc2cc(O)cc(-c3ncc4c(C56CCN(CC5)CC6)nc(OC[C@@]56CCCN5C[C@H](F)C6)nc4c3F)c12 [Example 71, 5-ethynyl-6-fluoro-4-(8-fluoro-2-(((2R, 7aS)-2-fluorotetrahydro-1H-pyrrolizin-7a(5H)-yl)methoxy)-4-(quinuclidin-4-yl)pyrido[4,3-d]pyrimidin-7-yl) naphthalen-2-ol] was tested, and the IC50 was > 2.5 µM.
In the case of Oc1cc(N2CCc3c(nc(OC[C@@]45CCCN4C[C@H](F)C5)nc3N3C[C@H]4CC[C@@H](C3)N4)C2)c2c(F)c(F)ccc2c1 [Example 204, 4-(4-((1R,5S)-3,8-diazabicyclo[3.2.1]octan-3-yl)-2-(((2R,7aS)-2-fluorotetrahydro-1H-pyrrolizin-7a(5H)-yl)methoxy)-5,8-dihydropyrido[3,4-d]pyrimidin-7(6H)-yl)-5,6-difluoronaphthalen-2-ol], the IC50 is reported as 0.011 µM.
With Oc1cc2c(c(-c3ncc4c(N5C[C@H]6CC[C@@H](C5)N6)nc(OC[C@@]56CCCN5C[C@H](F)C6)nc4c3F)c1)C(CC(F)(F)F)CC2 (stereo partly drawn) [Example 257, 7-(4-((1R,5S)-3,8-diazabicyclo[3.2.1]octan-3-yl)-8-fluoro-2-(((2R,7aS)-2-fluorotetrahydro-1H-pyrrolizin-7a(5H)-yl)methoxy)pyrido[4,3-d]pyrimidin-7-yl)-1-(2,2,2-trifluoroethyl)-2,3-dihydro-1H-inden-5-ol] the IC50 was 1.85 µM.
With CC1OCCc2cc(O)cc(-c3c4c(c5c(N6C[C@H]7CC[C@@H](C6)N7)nc(OC[C@@]67CCCN6C[C@H](F)C7)nc5c3F)OCO4)c21 (stereo partly drawn) [Example 392, 8-(9-((1R,5S)-3,8-diazabicyclo[3.2.1]octan-3-yl)-5-fluoro-7-(((2R,7aS)-2-fluorotetrahydro-1H-pyrrolizin-7a(5H)-yl)methoxy)-[1,3]dioxolo[4,5-f]quinazolin-4-yl)-1-methylisochroman-6-ol] the IC50 was 0.11 µM.
CCc1c(F)ccc2cc(O)cc(-c3ncc4c(N5C[C@H]6CC[C@@H](C5)N6)nc(OCC5(CN6CCCC6)CC5)nc4c3F)c12 [Example 3, 4-(4-((1R,5S)-3,8-diazabicyclo[3.2.1]octan-3-yl)-8-fluoro-2-((1-(pyrrolidin-1-ylmethyl)cyclopropyl)methoxy)pyrido[4,3-d]pyrimidin-7-yl)-5-ethyl-6-fluoronaphthalen-2-ol] gave an IC50 of 0.0045 µM.
For C#Cc1c(F)ccc2cc(O)cc(-c3ncc4c(C5CCN(C(=O)CO)C5)nc(OC[C@@]56CCCN5C[C@H](F)C6)nc4c3F)c12 (stereo partly drawn) [Example 84, 1-(3-(7-(8-ethynyl-7-fluoro-3-hydroxynaphthalen-1-yl)-8-fluoro-2-(((2R,7aS)-2-fluorotetrahydro-1H-pyrrolizin-7a(5H)-yl)methoxy)pyrido[4,3-d]pyrimidin-4-yl)pyrrolidin-1-yl)-2-hydroxyethan-1-one], the IC50 was > 10 µM.
Work on C#Cc1cccc2cc(O)cc(-c3ncc4c(N5CC6CCCC(C5)N6)nc(OC[C@@]56CCCN5C[C@H](F)C6)nc4c3F)c12 [Example 44, 4-(4-(3,9-diazabicyclo [3.3.1]nonan-3-yl)-8-fluoro-2-(((2R,7aS)-2-fluorotetrahydro-1H-pyrrolizin-7a(5H)-yl)methoxy)pyrido[4,3-d]pyrimidin-7-yl)-5-ethynylnaphthalen-2-ol] yielded an IC50 of 0.047 µM.
C#Cc1c(F)ccc2cc(O)cc(-c3ccc4c(N5C[C@H]6CC[C@@H](C5)N6)c(C#N)c(OC[C@@]56CCCN5C[C@H](F)C6)nc4c3F)c12 [Example 177, 4-((1R,5S)-3,8-diazabicyclo[3.2.1]octan-3-yl)-7-(8-ethynyl-7-fluoro-3-hydroxynaphthalen-1-yl)-8-fluoro-2-(((2R,7aS)-2-fluorotetrahydro-1H-pyrrolizin-7a(5H)-yl)methoxy)quinoline-3-carbonitrile] showed an IC50 of 0.53 µM.
CCc1c(F)ccc2cc(O)cc(-c3ccc4c(N5CC6CCC(C5)[S+]6[O-])nc(OC[C@@]56CCCN5C[C@H](F)C6)nc4c3F)c12 (stereo partly drawn) [Example 162, (1R,5S,8R)-3-(7-(8-ethyl-7-fluoro-3-hydroxynaphthalen-1-yl)-8-fluoro-2-(((2R,7aS)-2-fluorotetrahydro-1H-pyrrolizin-7a(5H)-yl)methoxy)quinazolin-4-yl)-8-thia-3-azabicyclo[3.2.1]octane 8-oxide] was tested, and the IC50 was > 2.5 µM.
CC1CCCc2cc(O)cc(-c3c(F)c4nc(OC[C@@]56CCCN5C[C@H](F)C6)nc(N5C[C@H]6CC[C@@H](C5)N6)c4c4cncn34)c21 (stereo partly drawn) [Example 417, 4-(1-((1R,5S)-3,8-diazabicyclo[3.2.1]octan-3-yl)-5-fluoro-3-(((2R,7aS)-2-fluorotetrahydro-1H-pyrrolizin-7a(5H)-yl)methoxy)imidazo[1′,5′:1,2]pyrido[4,3-d]pyrimidin-6-yl)-5-methyl-5,6,7,8-tetrahydronaphthalen-2-ol] was tested, and the IC50 was 0.035 µM.
With C#Cc1cccc2cc(O)cc(-c3ccc4c(N5C[C@H]6CC[C@@H](C5)N6)nc(OC[C@@]56CCCN5C[C@H](F)C6)nc4n3)c12 [Example 144, 4-(4-((1R,5S)-3,8-diazabicyclo[3.2.1]octan-3-yl)-2-(((2R,7aS)-2-fluorotetrahydro-1H-pyrrolizin-7a(5H)-yl)methoxy)pyrido[2,3-d]pyrimidin-7-yl)-5-ethynylnaphthalen-2-ol] the IC50 was > 2.5 µM.
N#Cc1c(OC[C@@]23CCCN2C[C@H](F)C3)nc2cc(-c3cc(O)cc4ccc(F)c(F)c34)ccc2c1N1C[C@H]2CC[C@@H](C1)N2 [Example 175, 4-((1R,5S)-3,8-diazabicyclo[3.2.1]octan-3-yl)-7-(7,8-difluoro-3-hydroxynaphthalen-1-yl)-2-(((2R,7aS)-2-fluorotetrahydro-1H-pyrrolizin-7a(5H)-yl)methoxy)quinoline-3-carbonitrile] gave an IC50 of 1.33 µM.
Work on C#Cc1c(F)ccc2cccc(-c3ccc4c(N5C[C@H]6CC[C@@H](C5)N6)nc(OC[C@]56CCCN5[C@@H](COC(=O)N(C)C)CC6)nc4c3F)c12 [Example 98, ((3R,7aR)-7a-(((4-((1R,5S)-3,8-diazabicyclo[3.2.1]octan-3-yl)-7-(8-ethynyl-7-fluoronaphthalen-1-yl)-8-fluoroquinazolin-2-yl)oxy)methyl)hexahydro-1H-pyrrolizin-3-yl) methyl dimethylcarbamate] yielded an IC50 of 0.129 µM.
Oc1cc(-c2ncc3c(N4C[C@H]5CC[C@@H](C4)N5)nc(OCC4(CN5CCCC5)CC4)nc3c2F)c2c(F)cccc2c1 [Example 6, 4-(4-((1R,5S)-3,8-diazabicyclo[3.2.1]octan-3-yl)-8-fluoro-2-((1-(pyrrolidin-1-ylmethyl)cyclopropyl)methoxy)pyrido[4,3-d]pyrimidin-7-yl)-5-fluoronaphthalen-2-ol] gave an IC50 of 0.014 µM.
For C#Cc1c(F)ccc2cc(O)cc(-c3ccc4c(N5CC6CCCNC6C5)nc(OC[C@@]56CCCN5C[C@H](F)C6)nc4c3F)c12 (stereo partly drawn) [Example 112, 5-ethynyl-6-fluoro-4-(8-fluoro-2-(((2R,7aS)-2-fluorotetrahydro-1H-pyrrolizin-7a(5H)-yl)methoxy)-4-(octahydro-6H-pyrrolo[3,4-b]pyridin-6-yl)quinazolin-7-yl) naphthalen-2-ol], the IC50 was > 2.5 µM.
Nc1cc(-c2ncc3c(N4C[C@H]5CC[C@@H](C4)N5)nc(OC[C@@]45CCCN4C[C@H](F)C5)nc3c2F)c2ccccc2c1 [Example 42, 4-(4-((1R,5S)-3,8-diazabicyclo[3.2.1]octan-3-yl)-8-fluoro-2-(((2R,7aS)-2-fluorotetrahydro-1H-pyrrolizin-7a(5H)-yl)methoxy)pyrido[4,3-d]pyrimidin-7-yl) naphthalen-2-amine] was tested, and the IC50 was 0.109 µM.
CC1CCCc2cc(O)cc(-c3ncc4c(N5C[C@H]6CC[C@@H](C5)N6)nc(OC[C@@]56CCCN5C[C@H](F)C6)nc4c3F)c21 (stereo partly drawn) [Example 224, 4-(4-((1R,5S)-3,8-diazabicyclo[3.2.1]octan-3-yl)-8-fluoro-2-(((2R,7aS)-2-fluorotetrahydro-1H-pyrrolizin-7a(5H)-yl)methoxy)pyrido[4,3-d]pyrimidin-7-yl)-5-methyl-5,6,7,8-tetrahydronaphthalen-2-ol] gave an IC50 of 0.0048 µM.
Work on C#Cc1cccc2cc(O)cc(-c3ccc4c(N5C[C@H]6CC[C@@H](C5)N6)nc(OC[C@@]56CCCN5C[C@H](F)C6)nc4c3F)c12 [Example 89, 4-(4-((1R,5S)-3,8-diazabicyclo[3.2.1]octan-3-yl)-8-fluoro-2-(((2R,7aS)-2-fluorotetrahydro-1H-pyrrolizin-7a(5H)-yl)methoxy)quinazolin-7-yl)-5-ethynylnaphthalen-2-ol] yielded an IC50 of 0.0015 µM.
Oc1cc(-c2ncc3c(N4C[C@H]5CC[C@@H](C4)N5)c(C(F)(F)F)c(OC[C@@]45CCCN4C[C@H](F)C5)nc3c2F)c2c(F)c(F)ccc2c1 [Example 198, 4-(4-((1R,5S)-3,8-diazabicyclo[3.2.1]octan-3-yl)-8-fluoro-2-(((2R,7aS)-2-fluorotetrahydro-1H-pyrrolizin-7a(5H)-yl)methoxy)-3-(trifluoromethyl)-1,6-naphthyridin-7-yl)-5,6-difluoronaphthalen-2-ol] was tested, and the IC50 was > 2.5 µM.
